Legend:
conscious beagle dogs = assay: 10 minute intravenous infusion, increasing doses: mean blood pressure, heart rate, plasma histamine (ELISA); assay type: in vivo, dog; settings: pretreatment before i.v. sulcardine sulfate
post-MI canine = assay: Defibrillation threshold / failure risk in post-MI canine model; assay type: in vivo
anesthetized dogs = assay: Hemodynamic effects of 15 minute infusions (10, 30, 90 mg/kg) with or without diphenhydramine pretreatment; assay type: in vivo, dog; settings: given prior to IV sulcardine sulfate
Experimental: Dogs were administered morphine (2 mg/kg subcutaneously) approximately 10-19 minutes prior to administration of anesthesia. Dogs were anesthetized with 1% α-chloralose (100 mg/kg intravenous), followed by a constant infusion of α-chloralose (35-75 mg/kg/hr, IV). Two healthy female dogs were administered escalating doses of sulcardine sulfate intravenously over 15 minutes in an acetate buffer system at dose levels of 10, 30 and 90 mg/kg with dose administrations separated by 60 minutes. Another set of two dogs received test article after pre-treatment with diphenhydramine (1 mg/kg administered 30 minutes prior to start of test article infusion). Following drug administration, dogs were evaluated for ventricular, pulmonary and peripheral hemodynamic changes using Swanz Ganz and femoral catheters as well as by monitoring of blood oxygen saturation, test article blood level, body temperature, blood biochemistry, hematology, ECG, and histamine levels.

Row | Structure (SMILES) | Effect of pretreatment on histamine-mediated events of sulcardine sulfate (conscious beagle dogs) | Defibrillation failure risk (post-MI canine) | Effect of anti-histamine on cutaneous manifestations of histamine release (flushing and facial and ear edema) (anesthetized dogs) | Effect of anti-histamine on hypotension seen on dosing (anesthetized dogs)
1 | N#Cc1cc(NC(=O)C(=O)O)c(Cl)c(NC(=O)C(=O)O)c1 [lodoxamide] | prevented the histamine-mediated events | – | – | –
2 | O=C(NCC1CCCCN1)c1cc(OCC(F)(F)F)ccc1OCC(F)(F)F (centres unmarked) [flecanide] | – | increase defibrillation failure risk | – | –
3 | CN(C)CCOC(c1ccccc1)c1ccccc1 [diphenhydramine, reference compound] | prevented the histamine-mediated events | – | blunting some of the cutaneous manifestations of histamine release | only partially reversed the hypotension

Reference: US8637566B2, “Slow infusion of sulcardine and its salts” (HUYA Bioscience International LLC, priority 2009, dated 2014)
